From patent publication US20230286995A1, “METABOLICALLY STABLE PYRIMIDINYL DIHYDROQUINOXALINONES AS TUBULIN POLYMERIZATION INHIBITORS” (UNIVERSITY OF TENNESSEE RESEARCH FOUNDATION, priority 2022, published 2023)
Read-outs that look alike come from different tables or passages of the source.

Columns and labels:
[1] = tested on: MDA-MB-231; assay: Cytotoxicity assay (MTS, 72 h); assay type: cell-based; conditions: Homo sapiens
[2] = tested on: MDA-MB-453; assay: Cytotoxicity assay (MTS, 72 h); assay type: cell-based, human
[3] = tested on: A375; assay: Cytotoxicity assay (MTS, 72 h);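 note: compounds tested from 0.1 nM up to 3 µM in four replicate wells, with absorbance read at 490 nm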
[4] = tested on: M14; assay: Cytotoxicity assay (MTS, 72 h); conditions: Homo sapiens
[5] = tested on: Mia PaCa-2; assay: Cytotoxicity assay (MTS, 72 h); assay type: cell-based; conditions: Homo sapiens
[6] = tested on: PANC-1; assay: Cytotoxicity assay (MTS, 72 h); assay type: cell-based; conditions: Homo sapiens
Description: Mia PaCa-2 and PANC-1 cells were seeded in 96-well plates at 4000 and 5000 cells per well, respectively.
Cytotoxicity Assay. […] Each experiment consisted of four replicates.

[7] = tested on: RPMI-7951; assay: Cytotoxicity assay (MTS, 72 h); assay type: cell-based; conditions: Homo sapiens, Table 1, read-out: IC50 (nM) Melanoma RPMI-7951
[8] = tested on: MDA-MB-468; assay: Cytotoxicity assay (MTS, 72 h); assay type: cell-based, human; conditions: Table 1, read-out: IC50 (nM) Breast MDA-MB-468
[9] = logP; assay type: physicochemical; conditions: Table 1; method not described
[10] = MDA-MB-231, read-out: IC50 Breast Cancer MDA-MB-231, Table 6, cells printed in μM
[11] = Homo sapiens, MDA-MB-453, Table 6, cells printed in μM, read-out: IC50 Breast Cancer MDA-MB-453
[12] = Homo sapiens, A-375, read-out: IC50 Melanoma Cancer A375, Table 6, cells printed in μM
[13] = M14, read-out: IC50 Melanoma Cancer M14
[14] = MDA-MB-231, read-out: IC50 (nM) Breast Cancer MDA-MB-231, Table 6
[15] = Homo sapiens, MDA-MB-453, Table 6, read-out: IC50 (nM) Breast Cancer MDA-MB-453
[16] = Table 6, cells printed in μM, read-out: IC50 Pancreatic cancer Mia PaCa-2
[17] = Table 6, cells printed in μM, read-out: IC50 Pancreatic cancer PANC-1
[18] = Homo sapiens, A-375, read-out: IC50 (nM) Melanoma Cancer A375, Table 6
[19] = M14, read-out: IC50 (nM) Melanoma Cancer M14
[20] = MDA-MB-231, read-out: IC50 (nM) Breast MDA-MB-231, Table 1
[21] = Homo sapiens, MDA-MB-453, Table 1, read-out: IC50 (nM) Breast MDA-MB-453
[22] = Homo sapiens, A-375, read-out: IC50 (nM) Melanoma A375, Table 1
[23] = M14, read-out: IC50 (nM) Melanoma M14
[24] = Table 1, read-out: IC50 (nM) Breast MDA-MB-453
[25] = Table 6, read-out: IC50 (nM) Pancreatic cancer Mia PaCa-2
[26] = Table 6, read-out: IC50 (nM) Pancreatic cancer PANC-1
[27] = read-out: IC50 (nM) Melanoma Cancer A375, Table 6

Row | Compound | IC50 [1, 14] [µM] | IC50 [2, 15] [µM] | IC50 [5, 16] [µM] | IC50 [6, 17] [µM] | IC50 [3, 18] [µM] | IC50 [4, 19] [nM] | IC50 [7] [nM] | IC50 [1, 20] [µM] | logP [9] | IC50 [3, 22] [µM] | IC50 [4, 23] [nM] | also measured
1 | COc1ccc2c(c1)[nH]c(=O)c(=O)n2-c1nc(S(C)(=O)=O)nc2c1CCC2 [Compound 15, 6-methoxy-1-(2-(methylsulfone)-6,7-dihydro-5H-cyclopenta[d]pyrimidin-4-yl)quinoxaline-2,3(1H,4H)-dione] | – | – | – | – | – | – | – | – | – | – | – | IC50 [1, 10]: > 3 µM; IC50 [2, 11]: > 3 µM; IC50 [3, 12]: > 3 µM; IC50 [4, 13]: > 3000 nM
2 | COc1ccc2c(c1)NC(=O)CN2c1nc(N2CCCCC2)nc2c1CCC2 [Compound 12f, 7-methoxy-4-(2-(piperidin-1-yl)-6,7-dihydro-5H-cyclopenta[d]pyrimidin-4-yl)-3,4-dihydroquinoxalin-2(1H)-one] | 0.69 ± 0.147 | 0.499 ± 0.126 | > 1.25 | > 1.25 | ~0.436 | 601 ± 117 | – | – | – | – | – | –
3 | COc1ccc2c(c1)NC(=O)CN2c1nc(C)nc2onc(C)c12 [Compound 5k, 4-(3,6-dimethylisoxazolo[5,4-d]pyrimidin-4-yl)-7-methoxy-3,4-dihydroquinoxalin-2(1H)-one] | – | – | – | – | – | – | 7 ± 2.3 | 0.0093 ± 0.0016 | 2.46 | 0.0143 ± 0.0041 | 6.7 ± 2.2 | IC50 [2, 21]: 0.0046 ± 0.0011 µM; IC50 ([8]; Homo sapiens, MDA-MB-468): 7.5 ± 1.6 nM
4 | COc1ccc2c(c1)NC(=O)CN2c1nc(Cl)nc2c1CCCC2 [Compound 5o, 4-(2-chloro-5,6,7,8-tetrahydroquinazolin-4-yl)-7-methoxy-3,4-dihydroquinoxalin-2(1H)-one] | – | – | – | – | – | – | > 1000 | > 1 | 3.16 | > 1 | > 1000 | IC50 [2, 24]: 0.256 ± 0.0595 µM; IC50 ([8]; Homo sapiens, MDA-MB-468): > 1000 nM
5 | COc1ccc2c(c1)nc(-c1ccc(OC)c(OC)c1OC)n2-c1nc(SC)nc2c1CCC2 [Compound 19, 5-methoxy-1-(2-(methylthio)-6,7-dihydro-5H-cyclopenta[d]pyrimidin-4-yl)-2-(2,3,4-trimethoxyphenyl)-1H-benzo[d]imidazole] | – | – | – | > 1.25 | – | – | – | – | – | – | – | IC50 [1, 10]: > 3 µM; IC50 [2, 11]: > 3 µM; IC50 ([5]; Table 6, cell printed in MM, read-out: IC50 Pancreatic cancer Mia PaCa-2): > 1.25 µM; IC50 [3, 12]: > 3 µM; IC50 [4, 13]: > 3000 nM
6 | COc1ccc2c(c1)NC(=O)CN2c1nc(C)nc(C)c1C [Compound 5r, 7-methoxy-4-(2,5,6-trimethylpyrimidin-4-yl)-3,4-dihydroquinoxalin-2(1H)-one] | – | – | – | – | – | – | 8.9 ± 1.5 | 0.018 ± 0.0027 | 2.97 | 0.009 ± 0.001 | 9.8 ± 1.7 | IC50 [2, 24]: 0.0043 ± 0.0009 µM; IC50 [8]: 5.2 ± 2.2 nM
7 | COc1ccc2c(c1)[nH]c(=O)n2-c1nc(SC)nc2c1CCC2 [Compound 18, 5-methoxy-1-(2-(methylthio)-6,7-dihydro-5H-cyclopenta[d]pyrimidin-4-yl)-1H-benzo[d]imidazol-2(3H)-one] | 1.34 ± 0.409 | 2.18 ± 0.861 | > 1.25 | > 1.25 | 1.18 ± 0.339 | 1110 ± 306 | – | – | – | – | – | –
8 | Cc1nc2c(c(-n3c(=O)[nH]c4cc(OC(F)(F)F)ccc43)n1)CCC2 [Compound 18a, 1-(2-methyl-6,7-dihydro-5H-cyclopenta[d]pyrimidin-4-yl)-5-(trifluoromethoxy)-1H-benzo[d]imidazol-2-one] | 0.919 ± 0.722 | – | – | – | 0.238 ± 0.126 | 1080 ± 682 | – | – | – | – | – | IC50 [5, 25]: 0.667 ± 0.652 µM; IC50 [6, 26]: 0.164 ± 0.0982 µM
9 | COc1ccc2c(c1)[nH]c(=O)c(=O)n2-c1nc(OC)nc2c1CCC2 [Compound 16, 6-methoxy-1-(2-methoxy-6,7-dihydro-5H-cyclopenta[d]pyrimidin-4-yl)quinoxaline-2,3(1H,4H)-dione] | – | – | > 1.25 | > 1.25 | – | – | – | – | – | – | – | IC50 [1, 10]: > 3 µM; IC50 [2, 11]: > 3 µM; IC50 [3, 12]: > 3 µM; IC50 [4, 13]: > 3000 nM
10 | COc1ccc2c(c1)NC(=O)CN2c1nc(Cl)nc2ccoc12 [Compound 5j, 4-(2-chlorofuro[3,2-d]pyrimidin-4-yl)-7-methoxy-3,4-dihydroquinoxalin-2(1H)-one] | – | – | – | – | – | – | 14.8 ± 3.7 | 0.0054 ± 0.0006 | 1.6 | 0.0119 ± 0.0032 | 5.6 ± 1.2 | IC50 [2, 21]: 0.0014 ± 0.0003 µM; IC50 ([8]; Homo sapiens, MDA-MB-468): 6.4 ± 1.3 nM
11 | COc1ccc2c(c1)[nH]c(=O)c(=O)n2-c1nc(SC)nc2c1CCC2 [Compound 14, 6-methoxy-1-(2-(methylthio)-6,7-dihydro-5H-cyclopenta[d]pyrimidin-4-yl)quinoxaline-2,3(1H,4H)-dione] | – | – | – | – | – | – | – | – | – | – | – | IC50 [3, 12]: > 3 µM
12 | COc1ccc2c(c1)NC(=O)CN2c1nc(N2CCN(C)CC2)nc2c1CCC2 [Compound 12d, 7-methoxy-4-(2-(4-methylpiperazin-1-yl)-6,7-dihydro-5H-cyclopenta[d]pyrimidin-4-yl)-3,4-dihydroquinoxalin-2(1H)-one] | 1.86 ± 0.65 | 0.416 ± 0.107 | > 1.25 | > 1.25 | ~0.543 | 574 ± 124 | – | – | – | – | – | –
13 | Cc1nc2c(c(N3CC(=O)Nc4cc(O)ccc43)n1)CCC2 [Compound 12q, 7-hydroxy-4-(2-methyl-6,7-dihydro-5H-cyclopenta[d]pyrimidin-4-yl)-3,4-dihydroquinoxalin-2(1H)-one] | 0.0259 ± 0.0049 | 0.0135 ± 0.0033 | – | – | ~0.019 | 21.8 ± 4.5 | – | – | – | – | – | IC50 [5, 25]: 0.0343 ± 0.0053 µM
14 | COc1ccc2c(c1)NC(=O)CN2c1nc(N2CCCC2)nc2c1CCC2 [Compound 12g, 7-methoxy-4-(2-(pyrrolidin-1-yl)-6,7-dihydro-5H-cyclopenta[d]pyrimidin-4-yl)-3,4-dihydroquinoxalin-2(1H)-one] | 0.119 ± 0.0205 | 0.0981 ± 0.0233 | – | – | ~0.0821 | 84.7 ± 17.6 | – | – | – | – | – | IC50 [5, 25]: 0.508 ± 0.0591 µM; IC50 [6, 26]: 0.213 ± 0.0476 µM; IC50 [3, 27]: 0.0822 ± 0.0129 µM
15 | COc1ccc2c(c1)NC(=O)CN2c1nc(N(C)C)nc2c1CCC2 [Compound 12i, 4-(2-(dimethylamino)-6,7-dihydro-5H-cyclopenta[d]pyrimidin-4-yl)-7-methoxy-3,4-dihydroquinoxalin-2(1H)-one] | 0.0369 ± 0.0061 | 0.0161 ± 0.0047 | > 1.25 | > 1.25 | ~0.0226 | 21.1 ± 4.1 | – | – | – | – | – | IC50 [3, 27]: 0.022 ± 0.0045 µM
16 | Cc1nc2c(c(N3CC(=O)Nc4cc(OC(F)(F)F)ccc43)n1)CCC2 [Compound 12o, 4-(2-methyl-6,7-dihydro-5H-cyclopenta[d]pyrimidin-4-yl)-7-(trifluoromethoxy)-3,4-dihydroquinoxalin-2(1H)-one] | 0.0758 ± 0.0131 | 0.0349 ± 0.0064 | – | – | ~0.0431 | 41.9 ± 5.6 | – | – | – | – | – | IC50 [5, 25]: 0.0835 ± 0.0128 µM; IC50 [6, 26]: 0.0424 ± 0.0085 µM
17 | COc1ccc2c(c1)NC(=O)CN2c1nc(O)nc2c1CCC2 [Compound 12a, 4-(2-hydroxy-6,7-dihydro-5H-cyclopenta[d]pyrimidin-4-yl)-7-methoxy-3,4-dihydroquinoxalin-2(1H)-one] | 1.2 ± 0.346 | 0.688 ± 0.186 | > 1.25 | > 1.25 | ~0.646 | 662 ± 126 | – | – | – | – | – | –
18 | COc1ccc2c(c1)NC(=O)CN2c1ncnc2c1CCC2 [Compound 5n, 4-(6,7-dihydro-5H-cyclopenta[d]pyrimidin-4-yl)-7-methoxy-3,4-dihydroquinoxalin-2(1H)-one] | – | – | – | – | – | – | 14 ± 3.9 | 0.054 ± 0.0099 | 2.05 | 0.0134 ± 0.0019 | 19.1 ± 5.3 | IC50 [2, 21]: 0.0073 ± 0.0015 µM; IC50 ([8]; Homo sapiens, MDA-MB-468): 15.6 ± 3.8 nM
19 | COc1ccc2c(c1)NC(=O)CN2c1nc(S(C)(=O)=O)nc2c1CCC2 [Compound 11, 7-methoxy-4-(2-(methylsulfonyl)-6,7-dihydro-5H-cyclopenta[d]pyrimidin-4-yl)-3,4-dihydroquinoxalin-2(1H) one] | 0.191 ± 0.032 | 0.0588 ± 0.0163 | > 1.25 | > 1.25 | ~0.0849 | 62.2 ± 10.8 | – | – | – | – | – | –
20 | COc1cc2c(cc1F)N(c1nc(Cl)nc3cccnc13)CC(=O)N2 [Compound 5i, 4-(2-chloropyrido[3,2-d]pyrimidin-4-yl)-6-fluoro-7-methoxy-3,4-dihydroquinoxalin-2(1H)-one] | – | – | – | – | – | – | > 1000 | > 1 | 2.23 | > 1 | > 1000 | IC50 [2, 21]: 0.693 ± 0.102 µM; IC50 ([8]; Homo sapiens, MDA-MB-468): 940 ± 300 nM
